Results from article PMC9150124, “Design of a Potent, Selective, and Brain-Penetrant Inhibitor of Wnt-Deactivating Enzyme Notum by Optimization of a Crystallographic Fragment Hit” (Journal of Medicinal Chemistry, 2022).

Experiments:
Assay in all cases: SelectScreen kinase profiling, SSBK ZLyte SP Technology
Format in all cases: biochemical
[1] = biological target: kinase named in conditions (Homo sapiens, UniProt Q14289); conditions: PTK2B (FAK2), 10 μM
Protocol: (§1) Kinase selectivity screening was performed by Thermo Fisher Scientific (Paisley, U.K.) in their SelectScreen Biochemical Kinase Profiling Service. Assay information and data are presented in the Supporting Information.
(§2) Kinase selectivity screening was performed by ThermoFisher Scientific (Paisley, U.K.) in their SelectScreenTM
(§3) Biochemical Kinase Profiling service .

[2] = biological target: kinase named in conditions (Homo sapiens, UniProt P49840); conditions: GSK3A (GSK3 alpha), 10 μM
kinase named in conditions (Homo sapiens, UniProt P49840), sequence (P49840 whole entry): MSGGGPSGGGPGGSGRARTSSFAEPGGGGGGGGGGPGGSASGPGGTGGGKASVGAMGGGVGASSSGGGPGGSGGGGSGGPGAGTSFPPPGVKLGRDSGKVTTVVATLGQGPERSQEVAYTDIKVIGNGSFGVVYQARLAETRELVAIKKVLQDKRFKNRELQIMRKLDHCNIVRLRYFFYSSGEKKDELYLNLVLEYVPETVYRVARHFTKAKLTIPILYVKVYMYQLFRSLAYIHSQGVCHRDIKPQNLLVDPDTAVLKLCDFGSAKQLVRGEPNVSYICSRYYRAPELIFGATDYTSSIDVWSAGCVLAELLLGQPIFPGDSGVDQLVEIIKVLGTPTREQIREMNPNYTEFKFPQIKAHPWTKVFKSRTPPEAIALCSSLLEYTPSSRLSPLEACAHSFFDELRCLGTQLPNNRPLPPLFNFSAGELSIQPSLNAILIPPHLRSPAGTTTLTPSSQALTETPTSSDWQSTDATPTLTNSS
Protocol: as §1, §2, §3

[3] = biological target: kinase named in conditions (Homo sapiens, UniProt P10721, V560G); conditions: KIT V560G, 10 μM
Protocol: as §1, §2, §3

[4] = biological target: kinase named in conditions (Homo sapiens, UniProt Q13237); conditions: PRKG2 (PKG2), 10 μM
kinase named in conditions (Homo sapiens, UniProt Q13237), sequence (Q13237 whole entry): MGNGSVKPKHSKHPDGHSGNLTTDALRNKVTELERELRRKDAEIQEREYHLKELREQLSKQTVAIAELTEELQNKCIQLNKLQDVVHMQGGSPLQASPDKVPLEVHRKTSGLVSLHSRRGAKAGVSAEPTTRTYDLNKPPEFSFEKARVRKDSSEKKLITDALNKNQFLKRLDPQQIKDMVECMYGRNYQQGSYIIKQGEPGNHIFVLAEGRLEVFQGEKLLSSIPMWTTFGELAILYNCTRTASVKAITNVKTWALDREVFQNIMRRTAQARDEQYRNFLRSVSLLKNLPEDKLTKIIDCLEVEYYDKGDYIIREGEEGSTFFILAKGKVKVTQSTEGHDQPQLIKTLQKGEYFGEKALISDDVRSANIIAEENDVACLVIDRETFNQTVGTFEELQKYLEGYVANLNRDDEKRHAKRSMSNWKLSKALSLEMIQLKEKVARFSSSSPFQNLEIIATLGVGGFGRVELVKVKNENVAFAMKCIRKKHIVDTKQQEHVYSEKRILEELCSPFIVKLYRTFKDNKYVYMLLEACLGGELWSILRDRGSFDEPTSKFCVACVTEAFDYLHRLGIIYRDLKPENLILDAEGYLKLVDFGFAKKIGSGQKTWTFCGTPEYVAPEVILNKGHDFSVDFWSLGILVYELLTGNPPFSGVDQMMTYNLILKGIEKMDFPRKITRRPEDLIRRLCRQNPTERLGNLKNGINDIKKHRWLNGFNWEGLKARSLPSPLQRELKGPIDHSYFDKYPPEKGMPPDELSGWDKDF
Protocol: as §1, §2, §3

[5] = biological target: kinase named in conditions (Homo sapiens, UniProt Q15418); conditions: RPS6KA1 (RSK1), 10 μM
Protocol: as §1, §2, §3

[6] = biological target: kinase named in conditions (Homo sapiens, UniProt Q9H4B4); conditions: PLK3, 10 μM
Protocol: as §1, §2, §3

[7] = biological target: kinase named in conditions (Homo sapiens, UniProt P15056, V600E); conditions: BRAF V599E, 10 μM
kinase named in conditions (Homo sapiens, UniProt P15056, V600E), sequence (P15056 whole entry V600E): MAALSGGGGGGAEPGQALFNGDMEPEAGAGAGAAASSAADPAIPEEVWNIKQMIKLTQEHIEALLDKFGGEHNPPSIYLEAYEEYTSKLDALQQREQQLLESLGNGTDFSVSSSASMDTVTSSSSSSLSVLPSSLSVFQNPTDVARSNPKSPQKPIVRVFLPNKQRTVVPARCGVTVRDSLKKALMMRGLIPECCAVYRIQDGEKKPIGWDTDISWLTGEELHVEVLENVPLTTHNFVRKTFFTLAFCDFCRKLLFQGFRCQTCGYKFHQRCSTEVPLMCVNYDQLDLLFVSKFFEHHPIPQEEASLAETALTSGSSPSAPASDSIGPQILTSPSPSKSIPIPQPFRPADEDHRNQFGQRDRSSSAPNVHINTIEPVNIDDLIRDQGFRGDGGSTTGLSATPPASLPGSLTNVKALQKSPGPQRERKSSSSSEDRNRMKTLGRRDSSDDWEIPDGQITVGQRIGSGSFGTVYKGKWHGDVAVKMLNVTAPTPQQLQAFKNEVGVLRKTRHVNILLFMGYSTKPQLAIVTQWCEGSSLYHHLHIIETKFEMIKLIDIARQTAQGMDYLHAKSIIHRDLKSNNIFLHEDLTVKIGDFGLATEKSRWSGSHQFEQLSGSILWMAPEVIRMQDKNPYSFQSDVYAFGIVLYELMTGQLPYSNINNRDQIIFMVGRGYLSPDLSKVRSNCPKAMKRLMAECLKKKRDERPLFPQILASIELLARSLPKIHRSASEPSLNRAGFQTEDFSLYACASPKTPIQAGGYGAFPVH
Protocol: as §1, §2, §3

[8] = biological target: kinase named in conditions (Homo sapiens, UniProt Q9HC98); conditions: NEK6, 10 μM
kinase named in conditions (Homo sapiens, UniProt Q9HC98), sequence (Q9HC98 whole entry): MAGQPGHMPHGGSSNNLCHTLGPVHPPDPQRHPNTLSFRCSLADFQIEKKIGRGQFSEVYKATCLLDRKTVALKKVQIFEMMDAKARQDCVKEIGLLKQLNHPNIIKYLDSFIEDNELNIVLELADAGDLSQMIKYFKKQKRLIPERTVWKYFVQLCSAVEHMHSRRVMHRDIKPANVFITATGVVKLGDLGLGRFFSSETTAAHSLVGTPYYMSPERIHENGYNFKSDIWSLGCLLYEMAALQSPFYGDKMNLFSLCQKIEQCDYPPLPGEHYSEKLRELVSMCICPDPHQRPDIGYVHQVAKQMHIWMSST
Protocol: as §1, §2, §3

[9] = biological target: kinase named in conditions (Homo sapiens, UniProt Q05397); conditions: PTK2 (FAK), 10 μM
Protocol: as §1, §2, §3

[10] = biological target: kinase named in conditions (Homo sapiens, UniProt Q6DT37); conditions: CDC42 BPG (MRCKG), 10 μM
Protocol: as §1, §2, §3

[11] = biological target: kinase named in conditions (Homo sapiens, UniProt P49760); conditions: CLK2, 10 μM
kinase named in conditions (Homo sapiens, UniProt P49760), sequence (P49760 whole entry): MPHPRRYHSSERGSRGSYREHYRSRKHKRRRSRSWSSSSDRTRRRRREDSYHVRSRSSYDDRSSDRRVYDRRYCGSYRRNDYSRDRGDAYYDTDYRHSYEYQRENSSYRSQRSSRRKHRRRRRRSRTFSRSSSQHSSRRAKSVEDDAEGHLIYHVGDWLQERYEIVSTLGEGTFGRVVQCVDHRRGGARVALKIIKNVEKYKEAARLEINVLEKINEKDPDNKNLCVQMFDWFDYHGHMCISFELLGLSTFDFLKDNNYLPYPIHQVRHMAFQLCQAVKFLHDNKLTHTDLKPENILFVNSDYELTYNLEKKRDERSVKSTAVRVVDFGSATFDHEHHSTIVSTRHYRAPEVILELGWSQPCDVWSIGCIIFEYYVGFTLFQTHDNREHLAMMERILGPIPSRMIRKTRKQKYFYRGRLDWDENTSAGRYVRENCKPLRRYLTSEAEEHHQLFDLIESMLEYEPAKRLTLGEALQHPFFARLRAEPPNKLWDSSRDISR
Protocol: as §1, §2, §3

[12] = biological target: kinase named in conditions (Homo sapiens, UniProt O75582); conditions: RPS6KA5 (MSK1), 10 μM
Protocol: as §1, §2, §3

[13] = biological target: kinase named in conditions (Homo sapiens, UniProt P51813); conditions: BMX, 10 μM
Protocol: as §1, §2, §3

[14] = biological target: kinase named in conditions (Homo sapiens, UniProt P07949, V804L); conditions: RET V804L, 10 μM
Protocol: as §1, §2, §3

[15] = biological target: kinase named in conditions (Homo sapiens, UniProt P16234, D842V); conditions: PDGFRA D842V, 10 μM
Protocol: as §1, §2, §3

[16] = biological target: kinase named in conditions (Homo sapiens, UniProt Q9UQB9); conditions: AURKC (Aurora C), 10 μM
Protocol: as §1, §2, §3

[17] = biological target: kinase named in conditions (Homo sapiens, UniProt P53778); conditions: MAPK12 (p38 gamma), 10 μM
kinase named in conditions (Homo sapiens, UniProt P53778), sequence (P53778 whole entry): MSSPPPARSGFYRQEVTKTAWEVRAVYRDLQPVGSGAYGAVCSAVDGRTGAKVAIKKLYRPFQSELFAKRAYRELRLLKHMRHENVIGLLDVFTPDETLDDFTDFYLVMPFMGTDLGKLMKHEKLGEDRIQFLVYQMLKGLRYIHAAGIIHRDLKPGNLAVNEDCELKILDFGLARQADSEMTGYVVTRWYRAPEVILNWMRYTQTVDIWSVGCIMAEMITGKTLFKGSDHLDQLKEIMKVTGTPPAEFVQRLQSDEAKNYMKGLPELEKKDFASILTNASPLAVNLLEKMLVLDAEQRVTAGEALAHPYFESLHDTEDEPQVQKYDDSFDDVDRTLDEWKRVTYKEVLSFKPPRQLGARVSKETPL
Protocol: as §1, §2, §3

[18] = biological target: kinase named in conditions (Homo sapiens, UniProt P31749); conditions: AKT1 (PKB alpha), 10 μM
Protocol: as §1, §2, §3

[19] = biological target: kinase named in conditions (Homo sapiens, UniProt P29597); conditions: TYK2, 10 μM
Protocol: as §1, §2, §3

[20] = biological target: kinase named in conditions (Homo sapiens, UniProt P41743); conditions: PRKCI (PKC iota), 10 μM
Protocol: as §1, §2, §3

[21] = biological target: kinase named in conditions (Homo sapiens, UniProt Q9NWZ3); conditions: IRAK4, 10 μM
Protocol: as §1, §2, §3

[22] = biological target: kinase named in conditions (Homo sapiens, UniProt P00519, T315I); conditions: ABL1 T315I, 10 μM
Protocol: as §1, §2, §3

[23] = biological target: kinase named in conditions (Homo sapiens, UniProt Q12866); conditions: MERTK (cMER), 10 μM
Protocol: as §1, §2, §3

[24] = biological target: kinase named in conditions (Homo sapiens, UniProt P08922); conditions: ROS1, 10 μM
Protocol: as §1, §2, §3

[25] = biological target: kinase named in conditions (Homo sapiens, UniProt Q9BZL6); conditions: PRKD2 (PKD2), 10 μM
kinase named in conditions (Homo sapiens, UniProt Q9BZL6), sequence (Q9BZL6 whole entry): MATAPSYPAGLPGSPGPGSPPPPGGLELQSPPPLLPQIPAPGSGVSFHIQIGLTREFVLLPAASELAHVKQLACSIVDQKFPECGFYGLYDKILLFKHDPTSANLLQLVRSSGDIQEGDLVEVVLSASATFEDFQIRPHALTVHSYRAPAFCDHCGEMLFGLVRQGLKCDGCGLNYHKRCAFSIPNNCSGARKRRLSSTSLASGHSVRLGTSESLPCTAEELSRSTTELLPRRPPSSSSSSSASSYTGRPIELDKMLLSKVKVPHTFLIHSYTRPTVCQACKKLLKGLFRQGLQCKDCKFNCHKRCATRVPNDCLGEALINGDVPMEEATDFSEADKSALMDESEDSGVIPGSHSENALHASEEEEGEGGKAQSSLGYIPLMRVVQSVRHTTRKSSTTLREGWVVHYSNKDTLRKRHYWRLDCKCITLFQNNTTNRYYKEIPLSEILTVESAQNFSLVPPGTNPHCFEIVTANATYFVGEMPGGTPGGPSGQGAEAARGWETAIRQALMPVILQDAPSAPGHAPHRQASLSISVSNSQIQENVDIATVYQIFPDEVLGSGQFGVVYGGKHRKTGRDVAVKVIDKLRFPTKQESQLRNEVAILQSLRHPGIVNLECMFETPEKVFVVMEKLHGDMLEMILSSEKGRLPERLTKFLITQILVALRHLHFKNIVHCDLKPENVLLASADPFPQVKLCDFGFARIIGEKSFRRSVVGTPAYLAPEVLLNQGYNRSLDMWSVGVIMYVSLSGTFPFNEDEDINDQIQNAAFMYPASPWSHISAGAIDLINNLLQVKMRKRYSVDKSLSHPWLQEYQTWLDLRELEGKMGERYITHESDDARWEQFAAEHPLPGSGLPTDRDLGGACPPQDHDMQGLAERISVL
Protocol: as §1, §2, §3

[26] = biological target: kinase named in conditions (Homo sapiens, UniProt Q13043); conditions: STK4 (MST1), 10 μM
Protocol: as §1, §2, §3

[27] = biological target: kinase named in conditions (Homo sapiens, UniProt Q13188); conditions: STK3 (MST2), 10 μM
Protocol: as §1, §2, §3

[28] = biological target: kinase named in conditions (Homo sapiens, UniProt P34947); conditions: GRK5, 10 μM
Protocol: as §1, §2, §3

[29] = biological target: kinase named in conditions (Homo sapiens, UniProt P06241); conditions: FYN, 10 μM
Protocol: as §1, §2, §3

[30] = biological target: kinase named in conditions (Homo sapiens, UniProt Q96NX5); conditions: CAMK1G (CAMKI gamma), 10 μM
Protocol: as §1, §2, §3

[31] = biological target: kinase named in conditions (Homo sapiens, UniProt P41279); conditions: MAP3K8 (COT), 10 μM
Protocol: as §1, §2, §3

[32] = biological target: kinase named in conditions (Homo sapiens, UniProt Q8TDC3); conditions: BRSK1 (SAD1), 10 μM
kinase named in conditions (Homo sapiens, UniProt Q8TDC3), sequence (Q8TDC3 whole entry): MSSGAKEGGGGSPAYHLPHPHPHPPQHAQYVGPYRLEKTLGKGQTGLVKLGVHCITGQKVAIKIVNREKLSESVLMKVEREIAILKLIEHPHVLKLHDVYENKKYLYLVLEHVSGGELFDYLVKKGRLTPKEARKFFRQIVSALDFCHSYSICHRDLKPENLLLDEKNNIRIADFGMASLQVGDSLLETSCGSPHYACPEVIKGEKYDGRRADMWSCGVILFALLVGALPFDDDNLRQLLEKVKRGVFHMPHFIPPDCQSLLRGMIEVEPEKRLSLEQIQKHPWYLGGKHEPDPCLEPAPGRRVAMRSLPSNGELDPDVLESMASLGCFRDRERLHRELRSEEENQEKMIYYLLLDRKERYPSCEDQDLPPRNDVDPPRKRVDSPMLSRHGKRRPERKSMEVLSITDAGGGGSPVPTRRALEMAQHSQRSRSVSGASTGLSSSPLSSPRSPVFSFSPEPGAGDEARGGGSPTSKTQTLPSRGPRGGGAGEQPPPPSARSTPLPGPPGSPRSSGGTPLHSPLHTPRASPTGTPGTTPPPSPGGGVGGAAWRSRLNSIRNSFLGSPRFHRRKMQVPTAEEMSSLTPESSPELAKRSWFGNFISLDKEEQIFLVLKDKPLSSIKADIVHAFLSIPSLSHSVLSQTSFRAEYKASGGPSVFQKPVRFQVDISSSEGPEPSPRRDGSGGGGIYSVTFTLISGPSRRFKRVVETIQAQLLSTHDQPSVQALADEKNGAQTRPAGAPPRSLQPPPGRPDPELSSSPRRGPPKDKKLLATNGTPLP
Protocol: as §1, §2, §3

[33] = biological target: kinase named in conditions (Homo sapiens, UniProt P07949, A883F); conditions: RET A883F, 10 μM
Protocol: as §1, §2, §3

[34] = biological target: kinase named in conditions (Homo sapiens, UniProt P22607); conditions: FGFR3, 10 μM
Protocol: as §1, §2, §3

In the case of `FC(F)(F)c1c(Cl)ccc(-n2ccnn2)c1Cl` [8l, 1-(2,4-Dichloro-3-(trifluoromethyl)phenyl)-1H-1,2,3-triazole], the inhibition at 10 µM [1] is reported as 7%, the inhibition at 10 µM [2] is reported as 7% and the inhibition at 10 µM [3] is reported as 3%. The inhibition at 10 µM [4] was 8%, the inhibition at 10 µM [5] was 8% and the inhibition at 10 µM [6] was 5%. For the same compound, the inhibition at 10 µM [7] was 5%, the inhibition at 10 µM [8] was 12% and the inhibition at 10 µM [9] was 4%. For the same compound, the inhibition at 10 µM [10] was 2%, the inhibition at 10 µM [11] was 18% and the inhibition at 10 µM [12] was 9%. The inhibition at 10 µM [13] was 7%, the inhibition at 10 µM [14] was 8% and the inhibition at 10 µM [15] was 0%. The inhibition at 10 µM [16] was 19%, the inhibition at 10 µM [17] was 2% and the inhibition at 10 µM [18] was 7%. It also gave an inhibition at 10 µM [19] of 7%, an inhibition at 10 µM [20] of 4% and an inhibition at 10 µM [21] of 5%. It also gave an inhibition at 10 µM [22] of 0%, an inhibition at 10 µM [23] of 5% and an inhibition at 10 µM [24] of 9%. The inhibition at 10 µM [25] was 0%, the inhibition at 10 µM [26] was 1% and the inhibition at 10 µM [27] was -9%. For the same compound, the inhibition at 10 µM [28] was -2%, the inhibition at 10 µM [29] was 0% and the inhibition at 10 µM [30] was 2%. The inhibition at 10 µM [31] was 0%, the inhibition at 10 µM [32] was 0% and the inhibition at 10 µM [33] was 10%. It also gave an inhibition at 10 µM [34] of 12%.
